These are literature values, as cited in patent publication US11433058B2, “Non-pulsatile prolonged-release betahistine oral solid compositions” (INTAS PHARMACEUTICALS LTD., priority 2017, dated 2022).

For series [1] the following is noted: per WO2014001267.
The conditions of series [2]: oral; immediate release tablet or orodispersible tablet (Betaserc SmPC).

SMILES strings stand for the structures. Where a name gives a salt, the structure may show the parent alone.

Turning to `CNCCc1ccccn1` [Betahistine dihydrochloride], in series [1], the water solubility is 49.3 mg/mL.
Turning to `O=C(O)Cc1ccccn1` [Example 2-PAA, 2-pyridylacetic acid], the absolute bioavailability entry in series [2] was “about 99%”.
